Laboratory results taken from patent US6780995B2, “Activated iododerivatives for the treatment of cancer and aids” (Isotechnika Inc., priority 1997, dated 2004).
Read-outs that look alike come from different tables or passages of the source.

Key:
A549 cells = test: IC50 assay, inhibition of cell proliferation and growth, A549; type: cell-based, human
Description: (§1) Cell culture: The human cell lines were propagated under sterile conditions in RPMI 1640 (CellGrow) with 10% fetal bovine serum (Hyclone), 2 mM L-glutamine, and sodium bicarbonate (complete medium) and incubated at 37° C. in HEPA-filtered Sterilcult CO2 tissue culture incubators (Forma) with 5% CO^2 and 95% humidity (Table 1). The murine leukemia cell lines were propagated in Dulbecco's MEM media with 10% equine serum (Hyclone), 2 mM L-glutamine, and sodium bicarbonate (complete medium) and incubated as described. The cells were subcultured twice weekly and used in experiments. The culture was screened for mycoplasma contamination using GeneProbe™ (Fisher) and positive cultures were cured of contaminants over three passages using constant treatment with BM-Cyclin™ antibiotic combination (Boehringer Mannheim). Only cultures confirmed as mycoplasma free were used in testing compounds for anticellular activity.
(§2) The test compounds were stored at 4° C. under light protected conditions. The test compounds were weighed and dissolved in DMSO. The dissolved compounds were then serially diluted in warm medium (RPMI 1640 or Dulbecco's MEM) under constant mixing to minimize precipitation. The positive control drug doxorubicin was diluted in water followed by dilution in media to achieve a final concentration of 200 nM.
(§3) For all experiments, the cells were harvested and centrifuged to remove the media, and suspended in fresh completed medium. Samples were taken to determine cell density. The cell count was determined with a Coulter Model Z1 cell counter and viability was measured with propidium iodide staining followed by analysis on a Coulter EPPICS Elite Flow cytometer. The cell samples sere adjusted with complete medium to a density of 5×10^4/mL for adherent cell lines and 1×10^5/mL for suspension lines. Tissue culture cluster plates (96 well, cat. No. 3595 Costar for adherent human lines and cat No. 25850 Corning for murine leukemias) were seeded with 100 μL cells and incubated as described. Replicate groups of plates were set up for each line to accommodate the exposure options for single agents and combinations. For each dilution 8 wells (100 μL samples of cells) were treated with 100 μL of dosing solution one day after plating. Each cluster plate contained a cell control (8 wells, mock-treated with complete medium), a medium control (3 wells with medium used to subtract out signal generated by media conditions), and an air blank (1 well, for calibrating the plate reader).
(§4) Anticellular effects of the compounds for the adherent cell lines were assessed with neutral red dye. On the day of analysis, the media was removed from sample cell monolayers and replaced with 0.1 mL of neutral red solution (0.5% neutral red, HBSS:RPMI 1640 (1:1), 0.05 M HEPES, pH 7.2). After incubation of the samples at 37° C. for 1 hour the excess dye was removed with blotting and the monolayers were washed twice with 0.85% NaCl solution (0.1 mL per wash). The cell associated dye was extracted by adding 0.2 mL of a 0.1 M NaH2PO4:ethanol (1:1) solution/well followed by incubation for 1 hour at 35° C. The absorbency of neutral red in each monolayer was measured at 550 nm (620 nm reference beam) on a Denley Anthos 2001 microplate reader. The data were transferred via the ARCOM software capture program in Lotus 1-2-3 for processing.
(§5) In assays where technical difficulties due to crystalization of the neutral red occurred the crystal violet staining procedure was employed to measure the amount of cells were left on the plate. Crystal violet staining solution [0.5% crystal violet (w/v), 50% methanol (v/v), 45% saline (v/v), and 5% formalin (v/v)] were prepared on the day of staining. After the media was removed from the sample wells, two drops of crystal violet stain were added to each well and the samples were incubated at ambient temperature for 10 minutes. […]

M14 cells = test: IC50 assay, inhibition of cell proliferation and growth, M14; type: cell-based, human
Description: as §1, §2, §3, §4, §5

MCF7 cells = test: IC50 assay, inhibition of cell proliferation and growth, MCF7; type: cell-based, human; conditions: Homo sapiens
Description: as §1, §2, §3, §4, §5

SK-MEL-5 cells = test: IC50 assay, inhibition of cell proliferation and growth, SK-MEL-5; type: cell-based, human
Description: as §1, §2, §3, §4, §5

COLO 205 cells = test: IC50 assay, inhibition of cell proliferation and growth, COLO 205; type: cell-based, human
Description: as §1, §2, §3, §4, §5

SK-OV-3 cells = test: IC50 assay, inhibition of cell proliferation and growth, SK-OV-3; type: cell-based, human
Description: as §1, §2, §3, §4, §5

B16 cells = test: IC50 assay, inhibition of cell proliferation and growth, B16; type: cell-based; conditions: B16 murine melanoma cell line, neutral red or crystal violet, read-out: IC50 Concentrations, B16
Description: as §1, §2, §3, §4, §5

P388 cells = test: IC50 assay (XTT), inhibition of cell proliferation and growth, P388; type: cell-based; conditions: P388 murine leukemia cell line, XTT dye conversion, read-out: IC50 Concentrations, P388
Description: as §1, §2, §3
(§6) Anticellular effects of the murine leukemia cell lines were assessed with the XTT dye conversion assay which is more suited to suspension cultures. On the day of analysis XTT[2,3-bis(2-methoxy-4-nitro-5-sulfophenyl)-5-[(phenylamino)carbenyl]-2H-tetrazolium hydroxide, inner salt, sodium salt (Sigma)] was weighed out and dissolved at 1 mg/mL in media. PMS (phenazine methosulfate) was prepared at 5 mM in PBS (phosphate buffered saline) and stored as a stock solution 4° C. The PMS was mixed with dissolved XTT to a final concentration of 0.025 mM. Sample wells were treated with 50 μL of the XTT solution and the plates were incubated for four hours at 37° C. to allow for conversion into the liquid soluble formazan product. After the incubation period the reaction was stopped by adding 10 μL of 10% SDS solution per well and the wells contents of each plate were mixed by agitation. The absorbancy of formazan in each monolayer was measured at 450 nm (620 nm reference beam) on a Denley Anthos 2001 microplate reader. The data were transferred via the ARCOM software capture program into Lotus 1-2-3 for processing.
(§7) Using the procedures described above, concentrations of the Example compounds necessary to inhibit cell proliferation and growth by 50% (1C50 values) were determined in the test cell lines.

RPMI 8226 cells = test: IC50 assay, inhibition of cell proliferation and growth, RPMI 8226; type: cell-based; conditions: Homo sapiens, RPMI-8226, read-out: IC50 Concentrations, RPM 18226
Description: as §1, §2, §3, §7

L1210 cells = test: IC50 assay (XTT), inhibition of cell proliferation and growth, L1210; type: cell-based; conditions: L1210 murine leukemia cell line; XTT dye conversion; read-out: IC50 Concentrations, L1210
Description: as §1, §2, §3, §6, §7

[1] = Homo sapiens, A549, read-out: IC50 Concentrations, A 549
[2] = Homo sapiens, M14, read-out: IC50 Concentrations, M14
[3] = MCF7, read-out: IC50 Concentrations, MCF 7
[4] = Homo sapiens, SK-MEL-5, read-out: IC50 Concentrations, SK MEL-5
[5] = Homo sapiens, COLO 205, read-out: IC50 Concentrations, COLO 205
[6] = Homo sapiens, SK-OV-3, read-out: IC50 Concentrations, SK-OV-3
[7] = Homo sapiens, A549 bronchogenic cell line, neutral red or crystal violet, read-out: IC50 Concentrations, A 549
[8] = Homo sapiens, M14 melanoma cell line, neutral red or crystal violet, read-out: IC50 Concentrations, M14
[9] = MCF7 breast adenocarcinoma cell line, neutral red or crystal violet, read-out: IC50 Concentrations, MCF 7
[10] = Homo sapiens, SK-MEL-5 melanoma cell line, neutral red or crystal violet, read-out: IC50 Concentrations, SK MEL-5
[11] = Homo sapiens, COLO 205 colon adenocarcinoma cell line, neutral red or crystal violet, read-out: IC50 Concentrations, COLO 205
[12] = Homo sapiens, SK-OV-3 ovarian adenocarcinoma cell line, neutral red or crystal violet, read-out: IC50 Concentrations, SK-OV-3

| Compound | melting point | IC50 (A549 cells; [1]) | IC50 (M14 cells; [2]) | IC50 (MCF7 cells; [3]) | IC50 (SK-MEL-5 cells; [4]) | IC50 (COLO 205 cells; [5]) | IC50 (SK-OV-3 cells; [6]) | IC50 (A549 cells; [7]) | IC50 (B16 cells; Mus musculus) | IC50 (M14 cells; [8]) | IC50 (MCF7 cells; [9]) | IC50 (SK-MEL-5 cells; [10]) | IC50 (COLO 205 cells; [11]) | IC50 (SK-OV-3 cells; [12]) | further results |
| --- | --- | --- | --- | --- | --- | --- | --- | --- | --- | --- | --- | --- | --- | --- | --- |
| CN(C)CCNC(=O)c1cc([N+](=O)[O-])ccc1I [Ref. No. 1, (N,N-Dimethylaminoethyl)-2-Iodo-5-Nitro-Benzamide] | 126 to 128 °C | 333 µM | 474 µM | 133 µM | 40.1 µM | 267 µM | 404 µM |  |  |  |  |  |  |  |  |
| CCN(CC)CCNC(=O)c1cc([N+](=O)[O-])ccc1I [Ref. No. 2, (N,N-Diethylaminoethyl)-2-Iodo-5-Nitro-Benzamide] | 124 to 126 °C | 333 µM |  | 128 µM |  | 343 µM |  |  |  |  |  |  |  |  |  |
| O=C(Nc1ccc2c(C(F)(F)F)cc(=O)oc2c1)c1cc([N+](=O)[O-])ccc1I [Ref. No. 3, 7-(2′-Iodo-5′-Nitro-Benzamido)-4-Trifluoromethyl-2H-1-Benzopyran-2-one] | 223 to 227 °C | 363 µM | 126 µM | 114 µM | 37.7 µM | 39.9 µM | 44 µM |  |  |  |  |  |  |  |  |
| O=C(Nc1ccc2ccc(=O)oc2c1)c1cc([N+](=O)[O-])ccc1I [Ref. No. 4, 7-(2′-Iodo-5′-Nitro-Benzamido)-2H-1-Benzopyran-2-one] | 273 to 277 °C |  |  |  |  |  |  | > 500 µM | 15.9 µM | > 500 µM | > 500 µM | > 500 µM | > 500 µM | 395 µM |  |
| O=C(Nc1nccs1)c1cc([N+](=O)[O-])ccc1I [Ref. No. 5, 2-(2′-Iodo-5′-Nitro-Benzamido)-Thiazole] | 210 to 213 °C |  |  |  |  |  |  | 48.6 µM | 30.8 µM | 17.4 µM | 27 µM | 46.2 µM | 13.4 µM | 32.8 µM |  |
| O=C(Nc1ncc([N+](=O)[O-])s1)c1cc([N+](=O)[O-])ccc1I [Ref. No. 6, 2-(2′-Iodo-5′-Nitro-Benzamido)-5-Nitro-Thiazole] | 230 to 234 °C | 86.5 µM | 141 µM | 80.9 µM | 132 µM | 117 µM | 130 µM |  |  |  |  |  |  |  |  |
| C=CCNC(=O)c1cc([N+](=O)[O-])ccc1I [Ref. No. 7, N-(Allyl)-2-Iodo-5-Nitro-Benzamide] | 155 to 158 °C |  |  |  |  |  |  | 134 µM | 45.1 µM | 41.8 µM |  | 124 µM | 38.5 µM | 46.4 µM | IC50 (P388 cells; Mus musculus): 39.4 µM |
| C#CCNC(=O)c1cc([N+](=O)[O-])ccc1I [Ref. No. 8, N-(Propargyl) 2-Iodo-5-Nitro-Benzamide] | 204 to 206 °C |  |  |  |  |  |  | 46.6 µM | 50 µM | 49 µM | 47.7 µM | 90.4 µM | 30.6 µM | 43.4 µM | IC50 (P388 cells; Mus musculus): 25.8 µM |
| C=C(C)c1ccccc1NC(=O)c1cc([N+](=O)[O-])ccc1I [Ref. No. 9, N-(2′-Iodo-5′-Nitro-Benzoyl) 2-Isopropenyl Aniline] | 155 to 158 °C |  |  |  |  |  |  | > 500 µM | 462 µM | > 500 µM | 100 µM | > 500 µM |  | > 500 µM |  |
| NC(=O)c1cc(N)ccc1I [Ref. No. 13] |  |  |  |  |  |  |  | > 500 µM | 500 µM | > 500 µM | > 500 µM | > 500 µM | > 500 µM | > 500 µM | IC50 (P388 cells; Mus musculus): 439 µM |
| NC(=O)c1cc([N+](=O)[O-])ccc1I [Ref. No. 15, 2-Iodo-5-Nitro-Benzamide] | 260 to 264 °C |  |  |  |  |  |  | 37.4 µM | 134 µM | 36.1 µM |  | 314 µM | 33.2 µM | 141 µM |  |
| O=C(c1cc([N+](=O)[O-])ccc1I)N(C(=O)c1cc([N+](=O)[O-])ccc1I)C1=NCCS1 [Ref. No. 17] |  | 127 µM | 37.9 µM | 46.9 µM | 42.8 µM | > 500 µM | 32 µM |  |  |  |  |  |  |  | IC50 (RPMI 8226 cells): > 50 µM |
| Cc1csc(N(C(=O)c2cc([N+](=O)[O-])ccc2I)C(=O)c2cc([N+](=O)[O-])ccc2I)n1 [Ref. No. 20] |  | 48.4 µM | 15.1 µM | 36.1 µM | 47.1 µM | 42.6 µM | 10.8 µM |  |  |  |  |  |  |  | IC50 (RPMI 8226 cells): 13.7 µM |
| O=C(NCCCCCCNC(=O)c1cc([N+](=O)[O-])ccc1I)c1cc([N+](=O)[O-])ccc1I [Ref. No. 24, 1,6-Di-(2′-Iodo-5′-Nitro-Benzamido)-Hexane] |  | > 500 µM | > 500 µM | > 500 µM | > 500 µM | > 500 µM | > 500 µM |  |  |  |  |  |  |  | IC50 (RPMI 8226 cells): > 500 µM |
| N-(3′-Pyridyl)-2-Iodo-5-Nitrophenyl Hydrazide [Ref. No. 11] |  |  |  |  |  |  |  |  |  |  |  |  |  |  | IC50 (A549 cells; A549 bronchogenic cell line, neutral red or crystal violet, read-out: IC50 Concentrations, A 549): 387 µM; IC50 (P388 cells): > 55.6 µM; IC50 (B16 cells): 129 µM; IC50 (M14 cells; M14 melanoma cell line, neutral red or crystal violet, read-out: IC50 Concentrations, M14): 467 µM; IC50 (L1210 cells): ≥ 55.6 µM; IC50 (SK-MEL-5 cells; SK-MEL-5 melanoma cell line, neutral red or crystal violet, read-out: IC50 Concentrations, SK MEL-5): 413 µM; IC50 (COLO 205 cells; COLO 205 colon adenocarcinoma cell line, neutral red or crystal violet, read-out: IC50 Concentrations, COLO 205): 111 µM; IC50 (SK-OV-3 cells; SK-OV-3 ovarian adenocarcinoma cell line, neutral red or crystal violet, read-out: IC50 Concentrations, SK-OV-3): 381 µM |
